Assay results: paper doi:10.1101/2023.07.11.548539v1, “A side-by-side comparison of peptide-delivered antisense antibiotics employing different nucleotide mimics” (bioRxiv, 2023)

System: outer membrane of Salmonella
Assay: Outer membrane permeabilization (NPN fluorescence)
Format: cell-based, Salmonella enterica serovar Typhimurium strain SL1344
Settings: test compounds 10 µM final, added at 14 min; NPN 10 µM; 5 mM HEPES, 5 mM glucose pH 7.2; CTAB and Polymyxin B positive controls
Experimental: The experiments were performed by modifying previously published protocols ([48]–[50]). Salmonella (WT SL1344, JVS-1574) were grown overnight in 4 ml MHB medium at 37 °C (with shaking at 220 rpm). Then the culture was diluted 1:100 and grown until OD 0.5 (∼2×10^8 cfu/mL). This culture was harvested and washed two times with 5mM HEPES and further diluted to OD 0.2 in 5 mM HEPES supplemented with 5 mM Glucose (pH 7.2). These cells were then incubated with N-phenylnaphthylamine (NPN) (Sigma, USA) at a final concentration of 10 µM. 190 µl of NPN treated cells were transferred into 96-well back plates with transparent bottom and fluorescence (excitation = 350 nm, emission = 420 nm) was recorded for 60 min (reading was performed every minute) using a Synergy H1 plate reader (Biotek). On the fourteenth minute, 10 µl of the test compounds (10 µM final concentration) was added into the wells. CTAB (Sigma, USA) 200 µM or Polymyxin B (Sigma, USA) 10 µg/ml (final concentration of 0.5 µg/ml) were used as positive controls, while water was used as negative control. The fluorescence of the wells were monitored using the same settings as above. The experiment was performed three times and Figure 10 is based on a single representative experiment.

Compound | Outer membrane permeabilization, NPN fluorescence (in words)
CCCCCCCCCCCCCCCC[N+](C)(C)C.[Br-] [CTAB, reference compound] | rapid increase in florescence
Polymyxin B [reference compound] | rapid increase in florescence
